Measured values: patent US20130164386A1, “Targeting the Alpha3 Subnit of Na+-K+-ATPase for the Treatment of Cough with Sulfenamides” (THE JOHNS HOPKINS UNIVERSITY, priority 2010, published 2013)
Read-outs that look alike come from different tables or passages of the source.

Key:
[1] = tested on: Na+-K+ ATPase activity of cough receptor terminations; assay: intravital FM2-10 styryl dye labeling of cough receptor terminals in tracheal mucosa; set-up: species or system guinea pig; settings: data not shown
Source text: FIGS. 1A-1D show: (A) selective immunohistochemical labeling of cough receptor terminations in the guinea pig tracheal mucosa with antisera to the alpha3 subunit of Na+K+-ATPase; (B) the cough receptor terminals innerating the tracheal mucosa also are brilliantly and selectively labeled intravitally by the styryl dye FM2-10. This staining method depends upon active Na+-K+ ATPase.
Mazzone, S. B, et al., “Selective Expression of a Sodium Pump Isozyme by Cough Receptors and Evidence for Its Essential Role in Regulating Cough,” J. Neurosci., 2009, 29(43):13662-13671. Thus, the cough receptors uniquely express the alpha3 subunit of the sodium pump in their peripheral terminals, and these terminals display high basal sodium pump activity based on FM2-10 fluorescence.
Referring now to FIGS. 1A-1D, it is shown that: (A) selective immunohistochemical labeling of cough receptor terminations in the guinea pig tracheal mucosa with antisera to the alpha3 subunit of Na+K+-ATPase; (B) the cough receptor terminals innerating the tracheal mucosa also are brilliantly and selectively labeled intravitally by the styryl dye FM2-10. Styryl dyes are known to produce fluorescence intensity proportional to Na+-K+-ATPase activity. Consistent with this notion, FM2-10 labeling of the cough receptor terminations is prevented by the sodium pump inhibitor ouabain (not shown). […]

[2] = tested on: citric acid evoked coughing; type: in vivo, guinea pig; settings: anesthetized guinea pigs
[3] = tested on: Na+-K+ ATPase activity of cough receptor terminations; settings: Mazzone et al., J. Neurosci. 2009; cited from earlier work
cough receptors = settings: in vitro; alpha3-selective concentration; cited from earlier work
[4] = tested on: citric acid evoked coughing; settings: alpha3-selective concentration; cited from earlier work
[5] = tested on: citric acid evoked coughing; assay: citric acid evoked coughing in conscious (unanesthetized) guinea pigs; type: in vivo, guinea pig; settings: 1 mg/mL, nebulized, delivered as an aerosol to the airways, listed as acid-activated omeprazole

SMILES	FM2-10 labeling of the cough receptor terminations [1]	blood pressure ([2]; dose 30 μg/kg lv)	citric acid evoked coughing ([2]; dose 30 μg/kg lv)	heart rate ([2]; dose 30 μg/kg lv)	respiratory pattern at eupnea ([2]; dose 30 μg/kg lv)	FM2-10 labeling of the cough receptors [3]	high frequency action potential patterning in cough receptors (cough receptors)	coughing evoked in vivo [4]	citric acid evoked coughing ([2]; topically applied to the tracheal mucosa, 0.1 mM, listed as acid activated omeprazole)	citric acid evoked coughing [5]
C[C@@H]1O[C@@H](O[C@H]2C[C@@H](O)[C@]3(CO)[C@H]4[C@H](O)C[C@]5(C)[C@@H](C6=CC(=O)OC6)CC[C@]5(O)[C@@H]4CC[C@]3(O)C2)[C@H](O)[C@H](O)[C@H]1O [ouabain]	prevented	no effect	nearly abolished	no effect	no effect	prevented	reduced substantially	reduced substantially	–	–
COc1ccc2[nH]c([S+]([O-])Cc3ncc(C)c(OC)c3C)nc2c1 (stereo not shown) [omeprazole]	–	–	–	–	–	–	–	–	nearly abolished	markedly inhibits
